Test [1] deals with Staphylococcus aureus subsp. aureus (ATCC29213). In words: MIC, broth microdilution (CLSI), Staphylococcus aureus subsp. aureus ATCC29213. In kind it is cell-based. The settings on record: ATCC29213, Table 15, read-out: S. aureus ("wound") (MIC). (Dilution methods test growth across graded concentrations, often in twofold steps.)
For test [2], the system named is Escherichia coli (ATCC25922). Nature of the test: MIC, broth microdilution (CLSI), Escherichia coli ATCC25922.
Setting [3] is: ATCC25922, read-out: E. coli MIC, Table 15, NI = No inhibition.
Setting [4] is: ATCC25922, read-out: E. coli MIC.

Converted amounts (≈) assume the structure as drawn. Counter-ions that a name gives are not always drawn. Like-named read-outs stand apart in the source and are kept apart here.

With `CC1CC(C)N(c2ccc3c(c2)Sc2cc(C(F)(F)F)cc(NCCCNCCN)c2N3)C1.Cl` (centres unmarked) [compound 349, N1-(2-aminoethyl)-N3-(7-(2,4-dimethyl-pyrrolidin-1-yl)-3-(trifluoromethyl)-10H-phenothiazin-1-yl)propane-1,3-diamine hydrochloride], the MIC (in general, the lowest concentration that inhibits growth of the organism) in test [1] was determined as 4 µg/mL; in test [2] (setting [3]), 16 µg/mL.
The matching figures for `Cl.Cl.NCCN1CCC(Nc2cc(C(F)(F)F)cc3c2Nc2ccc(C4CCCC4)cc2S3)CC1` [compound 354, N-(1-(2-aminoethyl)piperidin-4-yl)-7-cyclopentyl-3-(trifluoromethyl)-10H-phenothiazin-1-amine hydrochloride]: 1 µg/mL and 8 µg/mL.
In the case of `Cl.NCCN1CCC(Nc2cc(C(F)(F)F)cc3c2Nc2ccc(N4CC5CCC4C5)cc2S3)CC1` (centres unmarked) [compound 327, N-(1-(2-aminoethyl)piperidin-4-yl)-7-(2-azabicyclo [2.2.1]heptan-2-yl)-3-(trifluoromethyl)-10H-phenothiazin-1-amine hydrochloride], the MIC in test [1] was found to be 1 µg/mL; in test [2] (setting [3]), 4 µg/mL.
For `CC1CCCN(c2ccc3c(c2)Sc2cc(C(F)(F)F)cc(NC(=O)C4CCCC(N)C4)c2N3)C1.Cl.Cl` (centres unmarked) [compound 313, 3-amino-N-(7-(3-methyl-piperidin-1-yl)-3-(trifluoromethyl)-10H-phenothiazin-1-yl)cyclohexane-1-carboxamide hydrochloride], the values for the MIC in test [1] and in test [2] (setting [3]) were 16 µg/mL and more than 128 µg/mL, respectively.
`Cl.NCCNCCCNc1cc(C(F)(F)F)cc2c1Nc1cc(Br)ccc1S2` [compound 355, N1-(2-aminoethyl)-N3-(8-bromo-3-(trifluoromethyl)-10H-phenothiazin-1-yl)propane-1,3-diamine hydrochloride]: the MIC is 4 µg/mL in test [1] and 8 µg/mL in test [2] (setting [3]).
Consider `CN(C)CCNCC(=O)CNc1cc(C(F)(F)F)cc2c1Nc1ccc(N3CCCC3)cc1S2.Cl.Cl` [compound 323, 1-((2-(dimethyl-amino)ethyl)amino)-3-((7-(pyrrolidin-1-yl)-3-(trifluoromethyl)-10H-phenothiazin-1-yl)amino) propan-2-one hydrochloride], for which the MIC was 128 µg/mL in test [1] and more than 128 µg/mL in test [2] (setting [4]).
Turning to `Cl.Cl.Cl.NCCNCC(=O)CNc1cc(C(F)(F)F)cc2c1Nc1ccc(N3CCCC3)cc1S2` [compound 317, 1-((2-aminoethyl)amino)-3-((7-(pyrrolidin-1-yl)-3-(trifluoromethyl)-10H-phenothiazin-1-yl)amino) propan-2-one hydrochloride], the MIC in test [1] stood at 64 µg/mL; in test [2] (setting [3]) it was 128 µg/mL.
For the compound `Cl.NCCNCCCNc1cc(C(F)(F)F)cc2c1Nc1ccc(C3=CCCC3)cc1S2` [compound 358, N1-(2-aminoethyl)-N3-(7-(cyclopent-1-en-1-yl)-3-(trifluoromethyl)-10H-phenothiazin-1-yl) propane-1,3-diaminehydrochloride], the MIC in test [1] and in test [2] (setting [3]) was 16 µg/mL throughout.
Consider `Cl.Cl.NCCN1CCC(Nc2cc(C(=O)NNc3ccccc3)cc3c2Nc2ccccc2S3)CC1` [compound 281, 1-((1-(2-aminoethyl)piperidin-4-yl)amino)-N′-phenyl-10H-phenothiazine-3-carbohydrazide hydrochloride], for which the MIC in test [1] stood at 32 µg/mL; in test [2] (setting [3]) it was 64 µg/mL.
In the same order, the values of `CC1CC(C)N(c2ccc3c(c2)Sc2cc(C(F)(F)F)cc(NC4CCN(CCN)CC4)c2N3)C1.Cl.Cl` (centres unmarked) [compound 341, N-(1-(2-aminoethyl)piperidin-4-yl)-7-(2,4-dimethyl-pyrrolidin-1-yl)-3-(trifluoromethyl)-10H-phenothiazin-1-amine hydrochloride] are 1 µg/mL and 8 µg/mL.
For `Cc1cc(NC2CCN(CCN)CC2)c2c(c1)Sc1cc(Br)ccc1N2.Cl` [compound 329, N-(1-(2-aminoethyl)piperidin-4-yl)-7-bromo-3-methyl-10H-phenothiazin-1-amine hydrochloride], the values for the MIC in test [1] and in test [2] (setting [3]) were 16 µg/mL and 64 µg/mL, respectively.
The matching figures for `Cl.NCCNCCCNc1cc(C(F)(F)F)cc2c1Nc1ccc(N3CCCC3)cc1S2` [compound 345, N1-(2-aminoethyl)-N3-(7-(pyrrolidin-1-yl)-3-(trifluoromethyl)-10H-phenothiazin-1-yl)propane-1,3-diamine hydrochloride]: 4 µg/mL and 32 µg/mL.
For the compound `Cl.Cl.Cl.NCCC1CCN(c2ccc3c(c2)Sc2cc(C(F)(F)F)cc(NC4CCN(CCN)CC4)c2N3)CC1` [compound 273, 7-(4-(2-aminoethyl)piperidin-1-yl)-N-(1-(2-aminoethyl)piperidin-4-yl)-3-(trifluoromethyl)-10H-phenothiazin-1-amine hydrochloride], the results for the MIC in test [1] and in test [2] (setting [3]) were 8 µg/mL and 32 µg/mL, respectively.
For `CC1CN(c2ccc3c(c2)Sc2cc(Br)ccc2N3CCCN)CC(C)O1.Cl` (centres unmarked) [compound 279, 3-(3-bromo-7-(2,6-dimethyl-morpholino)-10H-phenothiazin-10-yl)propan-1-amine hydrochloride], the minimal inhibitory concentration (MIC) in test [1] was 16 µg/mL; in test [2] (setting [3]) it was 128 µg/mL.
Take `Cl.NCCOCCCNc1cc(C(F)(F)F)cc2c1Nc1ccc(Br)cc1S2` [compound 344, N-(3-(2-aminoethoxy)propyl)-7-bromo-3-(trifluoromethyl)-10H-phenothiazin-1-amine hydrochloride]: the MIC in test [1] was determined as 8 µg/mL; in test [2] (setting [3]), 16 µg/mL.
Consider `Cl.NCCCNc1cc(C(F)(F)F)cc2c1Nc1ccc(N3CCCC3)cc1S2` [compound 324, N1-(7-(pyrrolidin-1-yl)-3-(trifluoromethyl)-10H-phenothiazin-1-yl)propane-1,3-diamine hydrochloride], for which the MIC in test [1] came to 4 µg/mL; in test [2] (setting [3]), 32 µg/mL.
For `Cl.NCCNCCCNc1cc(C(F)(F)F)cc2c1Nc1ccc(N3CCC4CCCC43)cc1S2` (centres unmarked) [compound 351, N1-(2-aminoethyl)-N3-(7-(hexahydro-cyclopenta[b]pyrrol-1(2H)-yl)-3-(trifluoromethyl)-10H-phenothiazin-1-yl)propane-1,3-diamine hydrochloride], the MIC worked out at 4 µg/mL in test [1] and 16 µg/mL in test [2] (setting [3]).
As to `Cl.Cl.NCCCN1c2ccc(C(=O)O)cc2Sc2cc(N3CCN(CCN)CC3)ccc21` [compound 277, 7-(4-(2-aminoethyl)piperazin-1-yl)-10-(3-aminopropyl)-10H-phenothiazine-3-carboxylic acid hydrochloride], the MIC in test [1] and in test [2] (setting [4]) was more than 128 µg/mL in each case.
Turning to `CC1CC(C)CN(c2ccc3c(c2)Nc2c(NC4CCN(CCN)CC4)cc(C(F)(F)F)cc2S3)C1.Cl` (centres unmarked) [compound 357, N-(1-(2-aminoethyl)piperidin-4-yl)-8-(3,5-dimethyl-piperidin-1-yl)-3-(trifluoromethyl)-10H-phenothiazin-1-amine hydrochloride], the MIC is 16 µg/mL in test [1] and 64 µg/mL in test [2] (setting [3]).
For the compound `Cl.NCCN1CCC(Nc2cc(C(F)(F)F)cc3c2Nc2ccc(N4CCC(C(N)=O)C4)cc2S3)CC1` (centres unmarked) [compound 338, 1-(9-((1-(2-aminoethyl)piperidin-4-yl)amino)-7-(trifluoromethyl)-10H-phenothiazin-3-yl)pyrrolidine-3-carboxamide hydrochloride], the MIC is 4 µg/mL in test [1] and 64 µg/mL in test [2] (setting [3]).
`NCCN1CCN(c2ccc3c(c2)Sc2cc(C(F)(F)F)cc(NC4CCNCC4)c2N3)CC1` [compound 269, 7-(4-(2-aminoethyl)piperazin-1-yl)-N-(piperidin-4-yl)-3-(trifluoromethyl)-10H-phenothiazin-1-amine hydrochloride]: the MIC in test [1] worked out at 16 µg/mL; in test [2] (setting [4]), 64 µg/mL.
`Cl.NCCN1CCC(Nc2cc(C(F)(F)F)cc3c2Nc2ccc(N4CCCC(F)C4)cc2S3)CC1` (centres unmarked) [compound 318, N-(1-(2-aminoethyl)piperidin-4-yl)-7-(3-fluoro-piperidin-1-yl)-3-(trifluoromethyl)-10H-phenothiazin-1-amine hydrochloride]: the figures for the MIC in test [1] and in test [2] (setting [3]) were 8 µg/mL and 16 µg/mL, respectively.
In the case of `COC1CCN(c2ccc3c(c2)Sc2cc(C(F)(F)F)cc(NC4CCN(CCN)CC4)c2N3)C1.Cl.Cl` (centres unmarked) [compound 321, N-(1-(2-aminoethyl)piperidin-4-yl)-7-(3-methoxy-pyrrolidin-1-yl)-3-(trifluoromethyl)-10H-phenothiazin-1-amine hydrochloride], the results for the MIC in test [1] and in test [2] (setting [3]) were 8 µg/mL and 32 µg/mL, respectively.
With `CN(C)c1ccc2c(c1)Sc1cc(C(F)(F)F)cc(NC3CCN(CCN)CC3)c1N2.Cl` [compound 334], the results for the MIC in test [1] and in test [2] (setting [3]) were 4 µg/mL and 16 µg/mL, respectively.
With `Cl.Cl.NCCN1CCC(Nc2cc(C(=O)N3CCCC3)cc3c2Nc2ccccc2S3)CC1` [compound 288, (1-(1-(2-aminoethyl)piperidin-4-ylamino)-10H-phenothiazin-3-yl)(pyrrolidin-1-yl)methanone], the MIC in test [1] and in test [2] (setting [4]) was 128 µg/mL throughout.
For the compound `Cl.NCCNCCCNc1cc(C(F)(F)F)cc2c1Nc1ccc(N3CC4CCC3C4)cc1S2` (centres unmarked) [compound 350, N1-(7-(2-azabicyclo[2.2.1]heptan-2-yl)-3-(trifluoromethyl)-10H-phenothiazin-1-yl)-N3-(2-aminoethyl) propane-1,3-diamine hydrochloride], the MIC in test [1] is 4 µg/mL; in test [2] (setting [3]), 8 µg/mL.
In the case of `NCCCN1c2ccc(C(=O)O)cc2Sc2cc(-c3cc4ccccc4[nH]3)ccc21` [compound 262, 10-(3-aminopropyl)-7-(1H-indol-2-yl)-10H-phenothiazine-3-carboxylic acid trifluoro acetic acid], the MIC in test [1] was 32 µg/mL (≈ 77 µM); in test [2] (setting [4]), more than 128 µg/mL.
`Cl.NCCCNc1cc(C(F)(F)F)cc2c1Nc1ccc(Br)cc1S2` [compound 333, N1-(7-bromo-3-(trifluoromethyl)-10H-phenothiazin-1-yl)propane-1,3-diamine hydrochloride]: the results for the MIC in test [1] and in test [2] (setting [3]) were 8 µg/mL and 16 µg/mL, respectively.

For the origin of these results see patent publication US11130741B2 (Bioimics AB, priority 2016, dated 2021).
